In PMC12381025 (Scientific Reports, 2025):

Tests used:
α-amylase = assay: α-Amylase inhibition assay; assay type: biochemical; conditions: versus standard inhibitor acarbose
α-glucosidase = assay: α-Glucosidase inhibition assay; assay type: biochemical; conditions: versus standard inhibitor acarbose

fold more potent than acarbose against α-amylase (α-amylase): 23.8 fold
fold more potent than acarbose against α-glucosidase (α-glucosidase): 5 fold
Structure (SMILES): O=C(CCc1nc2ccccc2[nH]1)N/N=C/c1cc2ccccc2nc1SCC(=O)Nc1ccc(F)cc1 [Compound 12n, (E)-2-((3-((2-(3-(1 H-benzo[d]imidazol-2-yl)propanoyl)hydrazineylidene)methyl)quinolin-2-yl)thio)-N-(4-fluorophenyl)acetamide]
